From patent US6469055B2, “Compositions and methods for treatment of neurological disorders and neurodegenerative diseases” (Massachusetts Institute of Technology, priority 1996, dated 2002)
Entries after “also recorded” stand apart in the source; their conditions may differ. Where a name gives a salt, the structure may show the parent alone.

Legend:
APP mRNA = test: APP mRNA, Northern blot, cultured cortical astrocytes; conditions: for effect on APP mRNA: PMA 5 μM or dexnorfenfluramine 100 μM; for effect on the increase in APP mRNA stimulated by PG E2: EGTA or KN-93 100 μM, PG E2 10 μM
Experimental: Pharmacological manipulations are performed in serum-free media on 7-14 DIV confluent astrocytes.
Total RNA from astrocytes grown on 100 mm dishes is extracted by the acid guanidium thiocyanate-phenol-chloroform method. […] In brief, the medium was aspirated and the cells were scraped in 1 mL of TRI Reagent. After incubation for 15 min at room temperature, 0.2 ml chloroform was added, mixed vigorously with TRI Reagent and the mixture was stored for another 15 min at room temperature. After centrifugation at 12,000 g for 15 min, 0.5 ml isopropanol was added to the aqueous phase of the mixture to precipitate RNA. The RNA pellet collected by centrifugation (12,000 g, 15 min at 4° C.) was washed with 70% ethanol. once and solubilized in an appropriate amount of Formazol (Molecular Research Center, Cincinnati, Ohio). […] RNA was blotted onto Hybond polyvinyl membranes by overnight capillary transfer and fixed onto the membranes by UV light illumination. […] Membranes were dried and exposed to Kodak X-ray film for 24-48 h with an Amersham enhancer sheet. The relative amounts of mRNA obtained by hybridization were estimated using densitometric analysis of autoradiographs. The levels of APP mRNA were normalized to the amounts of G3PDH mRNA and expressed as a ratio to the levels of untreated, control cells.

APP holoprotein [1] = test: Cell-associated APP (APP holoprotein), Western blot, cultured cortical astrocytes; conditions: for effect on the increase in APP holoprotein stimulated by PG E2: PG E2 10 μM; for effect on cell-associated APP (APP holoprotein): PMA 5 μM or DNF 100 μM; for levels of cellular and amyloidogenic APP holoprotein: aspirin or resveratrol, nano- or micromolar range, cultured astrocytes or neurons; for effect on basal APP holoprotein: p>0.05; for cellular APP holoprotein compared to untreated cells: antiserum R98
Experimental: Astrocytes are isolated from cortices from postnatal rats. […] In brief, dissected cortices were dissociated by trypsinization and trituration through a flame-polished Pasteur pipette. Cells were plated onto poly-L-lysine coated 35- or 100 mm culture dishes at densities of about 10-25 cells/mm^2. […] Media are changed twice weekly. […] Pharmacological manipulations are performed in serum-free media on 7-14 DIV confluent astrocytes.
To detect cell-associated protein (APP or GFAP), astrocytes from 35 mm dishes are scraped in lysis buffer (60 mM Tris/HCl, 4% SDS, 20% glycerol, 1 mM dithiothreitol), ultrasonicated and boiled for 5 min. The total amount of cell protein per dish, estimated using the bicinchoninic acid assay, is not altered by pharmacological treatments. Bromphenol blue (0.1%) is added to each sample and equal amounts of protein (˜75 mg/lane) are loaded on 10% SDS-polyacrylamide gels.
The amount of media or cell protein loaded for sodium dodecyl sulfate-polyacrylamide gel electrophoresis (10-20% SDS PAGE; Bio-Rad) was normalized for the amount of protein per sample. […] After 2×10 min rinses in TBST, the membranes were incubated in TBST containing an appropriate antibody. Monoclonal antibodies 22C11 and GFAP (both from Boehringer-Mannheim) were used to detect the N-terminus of APP and glial fibrillary acidic protein respectively; antisera R37 and R98 (gifts of Dr. F. Kametani, Tokyo Institute of Psychiatry) were used to detected the C-terminus and KPI motifs of APP respectively; antiserum C8 (gift of Dr. D. Selkoe, Women's Hospital, Harvard Medical School, Cambridge, Mass.) was used to detect the C-terminus of APP.
After an overnight incubation, membranes were rinsed in TBST before being treated for 1h with a peroxidase-linked secondary antibody. After several rinses in TBST, protein bands were visualized on Kodak X-AR films by an enhanced chemiluminescence method (Amersham). Optical densities of the protein bands were quantitated by laser scanning densitometry (LKB, Bromma, Sweden), and normalized to the densities of those bands generated under control conditions.

APP synthesis = APP synthesis (APP mRNA and holoprotein) in cultured cortical astrocytes; assay type: cell-based, rat
secreted APP (APPs) = test: APPs secretion into the media of cultured cortical astrocytes, Western blot; assay type: cell-based, rat; conditions: for APPs secretion relative to untreated cells: PMA 5 μM or DNF 100 μM, 1 hour, mAb22C11; for APPs secretion, to that of untreated cells: PMA 5 μM, dexnorfenfluramine 100 μM
Experimental: Astrocytes are isolated from cortices from postnatal rats. […] Media are changed twice weekly.
To detect secreted APP, culture media was collected after drug treatments and phenylmethylsulfonyl fluoride was added to a final concentration of 2 mM. The media samples were then applied to Sephadex PD-10 desalting columns (Pharmacia) and eluted with distilled water. Column eluates were frozen and dried by vacuum centrifugation. The lyophilized proteins were reconstituted in 25 μL water followed by 25 μL of 2X Laemmli gel loading buffer, and boiled for 5 min.
(§1) Assays of PI hydrolysis are conducted as previously reported. Also, measurements of APPs are conducted as previously reported.

cellular cAMP levels = test: cAMP assay in cultured astrocytes; assay type: cell-based, rat; conditions: for effect on cellular cAMP levels stimulated by PG E2: EGTA or KN-93, PG E2 10 μM
Experimental: In brief, after aspirating the medium and rinsing twice with 1 ml ice cold PBS, the cells were scraped in 0.8 ml ice cold ethanol and sonicated. […] After resuspension in 120 μl Tris/EDTA buffer, two duplicate samples of 50 μl each were mixed with the binding protein, [8-^3H] adenosine 3′, 5′-cyclic phosphate tracer and incubated at 2-4° C. for 2 h. A charcoal suspension (100 μl) was added to the samples before centrifugation and 200 μl of the supernatant were removed for. scintillation counting. The amount of cyclic AMP (pmol/mg protein) was estimated by comparing to known standards, and normalized to the amounts of whole cell protein as determined by the bicinchoninic acid assay (Sigma).

APP holoprotein [2] = test: Brain APP holoprotein in rats injected with p-chloroamphetamine (PCA) with or without aspirin; assay type: in vivo, rat; conditions: for brain APP holoprotein relative to control levels: rats, injections of aspirin alone
Source text: Neuronal injury can stimulate prostaglandin production., and thereby stimulate APP overexpression. We injected rats with para-chloroamphetamine (PCA), a neurotoxin which causes a loss of serotoninergic terminals in the brain.

PI hydrolysis = PI hydrolysis in cultured astrocytes; assay type: cell-based, rat
Experimental: as §1

[3] = DFU or DFP 10^-9-10^-3 M, 1 h, cultured astrocytes
[4] = aspirin or resveratrol, 1 h, nano- or micromolar range, cultured astrocytes or neurons
[5] = propranolol 50 μM with NE 50 μM

SMILES: Cl.Cl.O=S(=O)(NCCNC/C=C/c1ccc(Br)cc1)c1cccc2cnccc12 [H-89, H-89 dihydrochloride]
- effect on PG E2-stimulated APP mRNA production (APP mRNA; H-89 dihydrochloride): blocked
- effect on the increase in APP holoprotein stimulated by PG E2 (APP holoprotein [1]; H-89 100 μM, 24 h): completely abolished

SMILES: CC(C)NCC(O)c1ccc(O)c(O)c1 (centres unmarked) [isoproterenol]
- APP mRNA levels versus untreated cells (APP mRNA; 24 h, NE 50 or 100 μM, isoproterenol 50 μM, Northern blot): about 1.6 fold
- APP mRNA, of untreated cells (APP mRNA; NE 50 or 100 μM, isoproterenol 50 μM): 180%
- effect on APP mRNA levels above controls (APP mRNA; about 24 h, NE 50 or 100 μM, Iso 50 μM, 8Br-cAMP […] μM): mimicked

SMILES: Cc1c(C(=O)c2cccc3ccccc23)c2cccc3c2n1[C@H](CN1CCOCC1)CO3 [Win55212]
- effect on APP synthesis (APP synthesis): decrease or inhibit

SMILES: CCCCCCCCCCCCCC(=O)O[C@@H]1[C@@H](C)[C@@]2(O)[C@@H](C=C(CO)C[C@]3(O)C(=O)C(C)=C[C@@H]23)[C@@H]2C(C)(C)[C@]12OC(C)=O [PMA, phorbol 12-myristate 13-acetate]
- APPs secretion relative to untreated cells (secreted APP (APPs)): significantly increases
- APPs secretion, to that of untreated cells (secreted APP (APPs)): ~3.0 fold
- effect on APP mRNA (APP mRNA): does not increase
- effect on cell-associated APP (APP holoprotein) (APP holoprotein [1]; 24 h): no effect
- effect on cell-associated APP (APP holoprotein) (APP holoprotein [1]; 24 h, listed as phorbol 12-myristate 13-acetate): does not increase

SMILES: CN1CCCC1c1cccnc1.O=C(O)C(O)C(O)C(=O)O.O=C(O)C(O)C(O)C(=O)O (centres unmarked) [nicotine ditartrate]
- APP secreted in the media (secreted APP (APPs); nicotine ditartrate 1, 10 or 100 μM, 1 h): decreased
- astrocytic APP holoprotein relative to untreated cells (APP holoprotein [1]; nicotine ditartrate 1, 10 or 100 μM, 24 h, p<0.05): significantly increased

SMILES: CC1(C)OC(=O)C(c2cccc(F)c2)=C1c1ccc(S(C)(=O)=O)cc1 [DFU, 5,5-dimethyl-3-(3-fluorophenyl)-4-(4-methylsulphonyl)phenyl-2(5H)-furanone]
- secretion of soluble APPs (secreted APP (APPs); [3]): increases; also recorded: promotes
- levels of cellular APP holoprotein (APP holoprotein [1]; [3]): decreases

SMILES: Oc1ccc(C=Cc2cc(O)cc(O)c2)cc1 [resveratrol]
- secretion of soluble APPs (secreted APP (APPs); [4]): increase; also recorded: promotes
- levels of cellular and amyloidogenic APP holoprotein (APP holoprotein [1]; 1 h): decreased levels; also recorded: decreases

SMILES: COc1ccc(S(=O)(=O)N(CCO)c2ccccc2CN(C)CC=Cc2ccc(Cl)cc2)cc1.O=P(O)(O)O [KN-93, N-[2-[[[3-(4′-chlorophenyl)-2-propenyl]methylamino]methyl]phenyl]-N-(2-hydroxyethyl)-4′-methoxy-benzenesulfonamide phosphate]
- effect on basal cAMP levels (cellular cAMP levels; EGTA or KN-93 100 μM alone): no significant effect
- effect on cellular cAMP levels stimulated by PG E2 (cellular cAMP levels): Neither EGTA nor KN-93 had a significant effect
- effect on the increase in APP mRNA stimulated by PG E2 (APP mRNA; 24 h): significantly inhibited
- effect on basal APP holoprotein (APP holoprotein [1]; EGTA or KN-93 100 μM alone): no significant effect
- effect on the increase in APP holoprotein stimulated by PG E2 (APP holoprotein [1]; EGTA or KN-93 100 μM, 24 h): significantly inhibited

SMILES: CC(=O)Oc1ccccc1C(=O)O [aspirin]
- secretion of soluble APPs (secreted APP (APPs); [4]): increase
- secretion of soluble APPs (secreted APP (APPs); aspirin or resveratrol, 1 h, nano- or micromolar range, cultured astrocytes or neurons, listed as Aspirin): promotes
- APP holoprotein levels versus uninjected control rats / effect on the PCA-induced increase (APP holoprotein [2]; rats injected with both aspirin and PCA): did not differ; also recorded: attenuated
- brain APP holoprotein relative to control levels (APP holoprotein [2]): significant decrease
- brain APP holoprotein relative to control levels (APP holoprotein [2]; listed as Aspirin): small, but significant decrease
- levels of cellular and amyloidogenic APP holoprotein (APP holoprotein [1]; 1 h): decreased levels
- levels of cellular and amyloidogenic APP holoprotein (APP holoprotein [1]; 1 h, listed as Aspirin): decreases

SMILES: C=CC[C@@H]1/C=C(\C)C[C@H](C)C[C@H](OC)[C@H]2O[C@@](O)(C(=O)C(=O)N3CCCC[C@H]3C(=O)O[C@H](/C(C)=C/[C@@H]3CC[C@@H](O)[C@H](OC)C3)[C@H](C)[C@@H](O)CC1=O)[C@H](C)C[C@@H]2OC [FK-506]
- effect on basal cAMP levels (cellular cAMP levels; cyclosporin A or FK-506 (50 μM) alone): no significant effect
- effect on basal APP holoprotein (APP holoprotein [1]; cyclosporin A or FK-506 50 μM alone): no significant effect

SMILES: CCN(CC)CC.Nc1ncnc2c1ncn2[C@@H]1O[C@@H]2COP(O)(=S)O[C@H]2[C@H]1O (some centres unmarked) [Sp-cAMP triethylamine]
- cellular APP holoprotein compared to untreated cells (APP holoprotein [1]; Sp-cAMP triethylamine 50 μM, 24 h): 1.6 fold
- cellular APP holoprotein compared to untreated cells (APP holoprotein [1]; Sp-cAMP triethylamine 100 μM, 24 h): 1.9 fold
- cellular APP holoprotein compared to untreated cells (APP holoprotein [1]; Sp-cAMP triethylamine 150 μM, 24 h): 2.2 fold
- effect on astrocytic APP holoprotein (APP holoprotein [1]; Sp-cAMP triethylamine in the absence of PG E2): sufficient to stimulate increases

SMILES: CC(C)NCC(O)COc1cccc2ccccc12 (centres unmarked) [propranolol]
- effect on the NE-induced increase in cAMP formation (cellular cAMP levels; [5]): inhibits
- effect on the NE-induced increase in PI hydrolysis (PI hydrolysis; [5]): no effect
- effect on APP synthesis (APP synthesis): decrease or inhibit
- effect on the NE- or isoproterenol-stimulated increase in APP mRNA (APP mRNA; propranolol 50 μM): to baseline levels; also recorded: significantly inhibited; also recorded: abolished
- effect on basal APP protein levels (APP holoprotein [1]; propranolol 50 μM on its own): no significant effect
- effect on the NE-stimulated increase in APP holoprotein (APP holoprotein [1]; [5]): inhibited

SMILES: C[C@H](N)Cc1cccc(C(F)(F)F)c1 [DNF, dexnorfenfluramine hydrochloride]
- APPs secretion relative to untreated cells (secreted APP (APPs)): significantly increases
- APPs secretion, to that of untreated cells (secreted APP (APPs)): ~2.2 fold
- PI hydrolysis relative to untreated astrocytes (PI hydrolysis; dexnorfenfluramine 100 μM, p<0.05): ~2.6 fold
- effect on APP mRNA (APP mRNA): does not increase
- effect on cell-associated APP (APP holoprotein) (APP holoprotein [1]; 24 h, hydrochloride): no effect
- effect on cell-associated APP (APP holoprotein) (APP holoprotein [1]; 24 h, listed as dexnorfenfluramine, hydrochloride): does not increase

SMILES: NCCNS(=O)(=O)c1cccc2cnccc12 [H9]
- effect on APP synthesis (APP synthesis): decrease or inhibit

SMILES: O=C(O)CN(CCOCCOCCN(CC(=O)O)CC(=O)O)CC(=O)O [EGTA]
- effect on basal cAMP levels (cellular cAMP levels; EGTA or KN-93 100 μM alone): no significant effect
- effect on cellular cAMP levels stimulated by PG E2 (cellular cAMP levels): Neither EGTA nor KN-93 had a significant effect
- effect on the increase in APP mRNA stimulated by PG E2 (APP mRNA; 24 h): significantly inhibited
- effect on basal APP holoprotein (APP holoprotein [1]; EGTA or KN-93 100 μM alone): no significant effect
- effect on the increase in APP holoprotein stimulated by PG E2 (APP holoprotein [1]; EGTA or KN-93 100 μM, 24 h): significantly inhibited
